Test [1] relates to ECHOR (Echinochloa oryzoides, early watergrass). The experiment in a line: In-water applied weed control, transplanted paddy rice, greenhouse (Example II). In kind it is in vivo, Echinochloa oryzoides (Ard.) Fritsch. The method, boiled down:
(§1)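 Transplanted rice and weeds at first to fourth true leaf stage in flooded mud pots (2.5–3 cm water), greenhouse ~29/26 °C day/night. Herbicides alone or mixed, in 1.25% crop oil concentrate (acetone for technical material), injected into the flood; visual 0–100% injury after ~3 weeks, expected mixture effects by Colby.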

Test [2] deals with SCPMA (Bolboschoenus maritimus or Schoenoplectus maritimus, sea clubrush). The test is described as above. In kind it is in vivo, Bolboschoenus maritimus (L.) Palla. The method, boiled down:
as §1

The mark [3] stands for this setting: Table 28, second set, 70 gae/ha alone.

Turning to `COc1c(Cl)ccc(-c2nc(C(=O)O)c(Cl)c(N)c2F)c1F` [Compound A Acid, 4-amino-3-chloro-5-fluoro-6-(4-chloro-2-fluoro-3-methoxy-phenyl)pyridine-2-carboxylic acid], the “Visual Weed Control (%) - 20 DAA ECHOR Obs” value in test [1] (Table 28, 8.75 gae/ha alone) is reported as 20%; in test [1] (Table 28, 17.5 gae/ha alone), 30%; in test [1] (Table 28, 35 gae/ha alone) it was 40%; in test [1] (Table 28, second set, 35 gae/ha alone) it was 25%; in test [1] (setting [3]), 35%; in test [1] (Table 43, 10.6 gae/ha alone), 10%. Besides, the “Visual Weed Control (%) - 20 DAA ECHOR Obs” value in test [1] (Table 43, 21.2 gae/ha alone) was found to be 30%; in test [1] (Table 43, 42.4 gae/ha alone), 45%. Further, the “Visual Weed Control (%) - 25 DAA ECHOR Obs” value is listed as 0% in test [1] (Table 31, 8.75 gae/ha alone); 0% in test [1] (Table 31, 17.5 gae/ha alone); 40% in test [1] (Table 31, 35 gae/ha alone). For the same compound, the “Visual Weed Control (%) - 19 DAA ECHOR Obs” value in test [1] (Table 31, 42 gae/ha alone) is reported as 15%. Further, the “Visual Weed Control (%) - 22 DAA ECHOR Obs” value in test [1] (Table 34, 10.6 gae/ha alone) was found to be 15%; in test [1] (Table 34, 21.2 gae/ha alone), 30%; in test [1] (Table 34, 42.4 gae/ha alone), 40%. Moreover, the “Visual Weed Control (%) - 21 DAA ECHOR Obs” value in test [1] (Table 36, 8.75 gae/ha alone) is recorded as 10%; in test [1] (Table 36, 17.5 gae/ha alone), 10%; in test [1] (Table 36, 35 gae/ha alone) it was 15%; in test [1] (Table 41, 10.6 gae/ha alone), 0%; in test [1] (Table 41, 21.2 gae/ha alone), 15%; in test [1] (Table 41, 42.4 gae/ha alone) it was 15%. Also, the “Visual Weed Control (%) - 20 DAA SCPMA Obs” value came out at 40% in test [2] (Table 28, 8.75 gae/ha alone); 20% in test [2] (Table 28, 17.5 gae/ha alone); 20% in test [2] (Table 28, 35 gae/ha alone); 0% in test [2] (setting [3]); 0% in test [2] (Table 38, 35 gae/ha alone); 0% in test [2] (Table 38, 70 gae/ha alone). The “Visual Weed Control (%) - 20 DAA SCPMA Obs” value in test [2] (Table 45, 42.4 gae/ha alone) was 0%; in test [2] (Table 45, 84.8 gae/ha alone) it was 0%.

With `COc1c(Cl)ccc(-c2nc(C(=O)OCc3ccccc3)c(Cl)c(N)c2F)c1F` [Compound A Benzyl Ester], the “Visual Weed Control (%) - 20 DAA ECHOR Obs” value in test [1] (Table 29, 4.38 gae/ha alone) came to 10%; in test [1] (Table 29, 8.75 gae/ha alone), 20%; in test [1] (Table 29, 17.5 gae/ha alone) it was 30%; in test [1] (Table 29, 35 gae/ha alone), 53%; in test [1] (Table 29, 70 gae/ha alone) it was 73%; in test [1] (Table 44, 8.75 gae/ha alone) it was 20%. In addition, in test [1] (Table 44, 17.5 gae/ha alone), the “Visual Weed Control (%) - 20 DAA ECHOR Obs” value came to 30%. For the same compound, the “Visual Weed Control (%) - 21 DAA ECHOR Obs” value is listed as 8% in test [1] (Table 32, 8 gae/ha alone); 5% in test [1] (Table 32, 16 gae/ha alone); 25% in test [1] (Table 37, 8.75 gae/ha alone); 25% in test [1] (Table 37, 17.5 gae/ha alone); 15% in test [1] (Table 42, 4.38 gae/ha alone); 15% in test [1] (Table 42, 8.75 gae/ha alone). The “Visual Weed Control (%) - 21 DAA ECHOR Obs” value is 20% in test [1] (Table 42, 17.5 gae/ha alone); 0% in test [1] (Table 46, 4.38 gae/ha alone); 10% in test [1] (Table 46, 8.75 gae/ha alone); 60% in test [1] (Table 46, 17.5 gae/ha alone). For the same compound, the “Visual Weed Control (%) - 22 DAA ECHOR Obs” value in test [1] (Table 35, 17.5 gae/ha alone) was found to be 30%. The “Visual Weed Control (%) - 20 DAA SCPMA Obs” value turned out to be 10% in test [2] (Table 29, 4.38 gae/ha alone); 0% in test [2] (Table 29, 8.75 gae/ha alone); 20% in test [2] (Table 29, 17.5 gae/ha alone); 0% in test [2] (Table 29, 35 gae/ha alone); 0% in test [2] (Table 29, 70 gae/ha alone); 0% in test [2] (Table 39, 35 gae/ha alone). For the same compound, the “Visual Weed Control (%) - 20 DAA SCPMA Obs” value in test [2] (Table 39, 70 gae/ha alone) was 0%; in test [2] (Table 46, 35 gae/ha alone), 0%; in test [2] (Table 46, 70 gae/ha alone) it was 0%. For the same compound, the “Visual Weed Control (%) - 21 DAA SCPMA Obs” value in test [2] (Table 32, 48 gae/ha alone) is given as 0%; in test [2] (Table 32, 96 gae/ha alone) it was 0%; in test [2] (Table 33, 8 gae/ha alone), 0%; in test [2] (Table 33, 16 gae/ha alone) it was 0%; in test [2] (Table 33, 32 gae/ha alone), 0%; in test [2] (Table 48, 8 gae/ha alone), 0%. The “Visual Weed Control (%) - 21 DAA SCPMA Obs” value in test [2] (Table 48, 16 gae/ha alone) came to 0%; in test [2] (Table 48, 32 gae/ha alone), 0%.

`COC(=O)c1ccccc1S(=O)(=O)NC(=O)Nc1nc(C)nc(OC)n1` [Metsulfuron-methyl, methyl 2-[[[[(4-methoxy-6-methyl-1,3,5-triazin-2-yl)amino]carbonyl]amino]sulfonyl]benzoate, reference compound]: the “Visual Weed Control (%) - 21 DAA ECHOR Obs” value in test [1] (Table 41, 7.5 gai/ha alone) is 50%; in test [1] (Table 41, 15 gai/ha alone), 65%; in test [1] (Table 42, 7.5 gai/ha alone), 50%; in test [1] (Table 42, 15 gai/ha alone), 65%.

On to `COCC(=O)OC(c1ncccc1S(=O)(=O)NC(=O)Nc1nc(OC)cc(OC)n1)C(C)F` (stereo not shown) [Flucetosulfuron, 1-[3-[[[[(4,6-dimethoxy-2-pyrimidinyl)amino]carbonyl]amino]sulfonyl]-2-pyridinyl]-2-fluoropropyl 2-methoxyacetate], for which the “Visual Weed Control (%) - 21 DAA ECHOR Obs” value is given as 0% in test [1] (Table 36, 0.1 gai/ha alone); 0% in test [1] (Table 36, 0.2 gai/ha alone); 0% in test [1] (Table 37, 0.1 gai/ha alone); 0% in test [1] (Table 37, 0.2 gai/ha alone).

`COC(=O)c1ccccc1CS(=O)(=O)NC(=O)Nc1nc(OC)cc(OC)n1` [Bensulfuron-methyl, methyl 2-[[[[[(4,6-dimethoxy-2-pyrimidinyl)amino]carbonyl]amino]sulfonyl]methyl]benzoate, reference compound]: the “Visual Weed Control (%) - 25 DAA ECHOR Obs” value in test [1] (Table 31, 35 gai/ha alone) is 80%; in test [1] (Table 31, 70 gai/ha alone) it was 85%. For the same compound, the “Visual Weed Control (%) - 19 DAA ECHOR Obs” value in test [1] (Table 31, 70 gai/ha alone) was 78%. Moreover, the “Visual Weed Control (%) - 21 DAA ECHOR Obs” value in test [1] (Table 32, 35 gai/ha alone) is reported as 0%; in test [1] (Table 32, 70 gai/ha alone), 15%. Further, the “Visual Weed Control (%) - 21 DAA SCPMA Obs” value worked out at 45% in test [2] (Table 32, 17.5 gai/ha alone) and 90% in test [2] (Table 32, 35 gai/ha alone).
